Values after ≈ are worked out from the molar mass of the structure shown.
Columns and labels:
[1] = tested on: C. albicans 53264 biofilms; experiment: Biofilm XTT metabolic assay; assay type: cell-based; settings: pre-adhesion, 2 h adherent and 24 h mature biofilms
Procedure: (§1) The antifungal activities of RTD-1, caspofungin and fluconazole were evaluated against biofilms of C. albicans SC5314 and 53264 essentially as described by Pierce et al.[67]. Briefly, biofilms established for 0 h (preadhesion), 2 h (adherent), or 24 h (mature) were developed by adding 1 × 10^5 yeast cells in 50 or 100 µl of RPMI-1640 to wells of flat-bottom 96-well microtiter plates (Costar, Corning, NY). Fifty or 100 µl aliquots of serial 2-fold dilutions of peptide or antifungal drugs were added to wells in triplicate and incubated for 24 h or 48 h prior to analysis of biofilm metabolic activities. Concentrations of reagents used were as follows: RTD-1 - 0.09 – 100 µg/ml (0.05–48 µM), Fluco – 1–250 µg/ml (3.3–816.3 µM); Caspo- 0.003–8 µg/ml ([…]–7.3 µM). Analysis of the effect of each agent on Candida biofilms was performed using an XTT colorimetric assay. One hundred µl of 1 µM XTT/menadione added to each biofilm well, plates were incubated in the dark for 3 h at 37 °C, and 80 µl of supernatant was transferred to a new 96-well flat-bottom microtiter plate (Greiner Bio-one, Monroe, NC). Absorbance was measured at 490 nm on a SpectraMax® i3x (Molecular Devices). Readings were plotted as average of triplicates after subtracting the corresponding values for negative controls (XTT/menadione only).

[2] = tested on: C. albicans SC5314 biofilms; experiment: Biofilm XTT metabolic assay; assay type: cell-based; settings: pre-adhesion conditions
Procedure: as §1

C. albicans 43001 = experiment: MIC/MFC, broth microdilution (modified CLSI M27-A2); assay type: cell-based
Procedure: (§2) C. albicans strains were tested against RTD-1, fluconazole, and caspofungin in microdilution broth in accordance with Clinical and Laboratory Standards Institute (CLSI) document M27-A2 with the exception that 25 mM MOPS was used in place of 165 mM MOPS, as described previously. Overnight cultures were harvested by centrifugation, washed twice with Ca^2+ and Mg^2+-free PBS, pH 7.2, and suspended in test medium (RPMI 1640 medium, 25 mM MOPS, 2 mM L-glutamine) at 10^4 CFU/ml[62]. Incubations were conducted in flat bottom, 96-well microtiter plates (Greiner bio-one, Monroe, NC) containing 0.2 ml test medium per well. Duplicate 0.1 ml aliquots of serial two-fold dilutions of peptides and antifungal drugs were dispensed into wells, each of which was inoculated with 0.1 ml of fungal cell suspension containing 1 × 10^3 CFU. Plates were incubated at 30 °C for 48 hours after which A600 was determined using a SpectraMax M5e plate reader.
(§3) Minimal fungicidal concentration (MFC) was determined by plating, on YPD plates, 10 µl from wells in MIC assay without cell growth and the first well with measurable turbidity as described[63]–[66] and corresponding aliquots from the no-agent controls. […] MFC is reported as the lowest concentration of peptide or antifungal drug that killed ≥99% of the input organisms.
(§4) MICs and MFCs of RTD-1 were also performed in the presence of 50% mouse serum. Serum was prepared from blood collected by cardiac puncture from BALB/c mice. After coagulation at room temperature, serum was collected by centrifugation (200 g for 10 min followed by 23,000 g for 15 min), and diluted with an equal volume of yeast inoculum in MIC test medium described above.

C. albicans SC5314 [3] = experiment: as above; assay type: cell-based; settings: Candida albicans
Procedure: as §2, §3, §4

C. albicans 53264 [4] = experiment: as above; assay type: cell-based
Procedure: as §2, §3, §4

C. albicans SC5314 [5] = experiment: Systemic candidiasis model, survival and renal fungal burden; assay type: in vivo, BALB/c mice
Procedure: The efficacy of RTD-1 in vivo was evaluated in an established model of systemic candidiasis using C. albicans SC5314. Both immunocompetent and immunosuppressed mouse models are employed in preclinical studies of systemic candidiasis. Since many of our preliminary studies employed the […] model, we conducted efficacy studies with RTD-1 and reference antifungal drugs in immunocompetent BALB/c mice. Mice were challenged i.v. with 3 × 10^5 blastospores at T = 0, which rapidly produces disseminated candidiasis and colonizes major organs in a manner resembling systemic candidiasis in humans. […] We analyzed the effect of a single 5 mg/kg dose of RTD-1 administered i.v., s.c., or i.p. immediately after i.v. fungal challenge, with i.p. saline as vehicle control. Fluco and Caspo, administered i.p. at 5 mg/kg, were used as drug comparators. […] In subsequent studies, antifungal agents were administered i.p. to circumvent potentially confounding effects resulting from treatment by the same route as infection, which was i.v. in all experiments.
(§5) BALB/c female mice (7–8 weeks old) and CD-1 female mice (4–5 weeks old) were obtained from Charles River Laboratories and allocated randomly in groups of five mice per cage. Mice were maintained on a 12 h light/dark cycle in thermostatically controlled rooms for the duration of the experiment. C. albicans inocula were prepared fresh each day from saturated cultures grown overnight in YPD medium, washed in sterile PBS, and fungi were counted with hemocytometer. Stock suspensions were prepared in sterile PBS. BALB/c mice were challenged with 2 × 10^6 CFU/ml wild-type C. albicans reference strain SC5314, while CD-1 mice were challenged with 1.8 × 10^7 CFU/ml (0.15–0.2 ml) C. albicans clinical isolate 53264 by i.v. injection into the lateral caudal tail vein using a 28 G 1/2 inch needle. Animals were treated by i.v., s.c., or i.p. routes immediately post-infection (p.i.) or 24 h p.i. with sterile saline (control), RTD-1, fluconazole, or caspofungin administered at the concentrations indicated in a 0.200 ml. Mice were weighted and monitored daily for general clinical condition. Mice were euthanized as approved by the USC IACUC and in compliance with the National Institutes of Health Guide for the Care and Use of Laboratory Animals. All experiments were repeated at least three times.
(§6) To assess systemic fungal clearance, renal fungal burden was determined. Mice were euthanized at times indicated, and both kidneys were weighed, homogenized in 5 ml of sterile PBS, and serial dilutions of homogenate were plated on YPD agar plates and incubated at 30 °C for 2 days. CFU per gram of kidney was calculated.

C. albicans 53264 [6] = experiment: Systemic MDR candidiasis model, survival and renal fungal burden; assay type: in vivo, CD-1 mice; settings: 5 mg/kg i.p. once per day for 7 days beginning 24 h p.i.; 1.8 × 10^7 blastospores i.v.; 40 days
Procedure: (as in Fig. 3d). CD-1, rather than BALB/c mice were used in the C. albicans 53264 challenge studies as this mouse strain was employed by Wiederhold et al. in the assessment of caspofungin efficacy against this pathogen. […] Fungal burdens were determined in kidneys of long term survivors in the RTD-1, Caspo, and Fluco-treated cohorts (euthanized at day 40) and from moribund mice from the survival study in Fig. 7a.
as §5, §6

[7] = tested on: clinical isolate of C. albicans; settings: 10 mg/kg i.p. daily beginning 24 h after infection; cited from earlier work
Excerpt: Despite the remarkable in vitro properties of HDPs, efforts to develop them as therapeutics have met with limited success. Barriers encountered include lack of peptide stability, toxicity, adverse proinflammatory properties, and poor bioavailability.

OC(Cn1cncn1)(Cn1cncn1)c1ccc(F)cc1F [Fluco, fluconazole]
biofilm inhibition (XTT) [1]: highly resistant | biofilm inhibition (XTT) [2]: more effective than RTD-1 at concentrations below 50 µg/ml | MIC (C. albicans 43001; Candida albicans, 43001, 48 h): > 256 µg/mL | MFC (C. albicans 43001; Candida albicans, 43001, RPMI, plating of MIC wells on YPD, ≥99% killing of input inoculum): > 256 µg/mL | MIC (C. albicans SC5314 [3]; RPMI 1640, 25 mM MOPS, 2 mM L-glutamine, 1 × 10^3 CFU/well, 30 °C, 48 h, A600, complete inhibition of growth, duplicate): 64 µg/mL (≈ 209 µM) | MFC (C. albicans SC5314 [3]; RPMI, plating of MIC wells on YPD, ≥99% killing of input inoculum): > 256 µg/mL | MIC (C. albicans 53264 [4]; Candida albicans, 53264, 48 h): > 256 µg/mL | MFC (C. albicans 53264 [4]; Candida albicans, 53264, RPMI, plating of MIC wells on YPD, ≥99% killing of input inoculum): > 256 µg/mL | survival (C. albicans SC5314 [5]; 5 mg/kg i.p. once a day for 7 days, first dose 24 h after infection, 30 d): markedly enhanced survival | survival (C. albicans SC5314 [5]; single 5 mg/kg dose at T = 0 (RTD-1 i.v., s.c. or i.p.; Fluco, Caspo i.p.), 3 × 10^5 blastospores i.v., 30 days, vs saline): effective in enhancing survival | survival (log-rank) (C. albicans 53264 [6]): significantly (P < 0.0001) improved survival

IDR-1018
renal fungal burden [7]: similarly modest reduction in renal fungal burden | survival [7]: modestly improved survival up to 8 days p.i.
